# Several values for one entry are separate records, joined by “and”; a condition that tells them apart may be missing. Equal values may be shown once. Read-outs that look alike come from different tables or passages of the source.
# Experiments:
# [1] = system: artemisinin-resistant P. falciparum Cambodian field isolates; assay: Drug susceptibility of culture-adapted Cambodian isolates; assay type: cell-based, Plasmodium falciparum
# Protocol: Endpoint readout to determine parasites density was performed with a High-Content Confocal Imaging microscope (Lionheart™ FX Automated Microscope, Biotek), IC50 values were obtained using ICestimator software (http://www.antimalarial-icestimator.net/runregression1.2.htm).
# [2] = system: rat primary hepatocytes; assay: Hepatocyte stability, rat; assay type: in vitro ADME
# [3] = system: P. falciparum Pf3D7^0087/N9 and Pf3D7^20161128TAD17N214; assay: PKPD efficacy studies in humanized NSG mice and PD model; assay type: in vivo, Plasmodium falciparum
# Protocol: The experimental designs are summarized in Supplementary Table 30. […] Samples were processed under liquid-liquid extraction methods and analyzed by LC-MS/MS for quantitation in a Waters UPLC-TQD (Micromass, Manchester, UK).
# Data preparation, exploration and model pre- and postprocessing were performed using R (version 3.6.3) and R package IQRtools (version 1.2.1 IntiQuan GmbH). Non-linear mixed-effects (NLME) modeling was used to estimate the PK and PD parameters using Monolix (Lixoft version MLX2018R2). The population PKPD model was developed with a two-stage approach: first, a population PK model was determined; then, the individual PK parameters were used as regression parameters and the PD parameters were estimated. The PD model consists of the balance between a parasite net growth rate and a drug killing rate. […] The growth rate of log-transformed parasite concentration was fixed at 0.03 /h based on prior experiments but estimating growth rate interindividual variability. Different Hill coefficients were tested.
# [4] = 7-day PK toxicity rat study; assay type: in vivo, Wistar Han rats; design: AUC(0 - t) / Cmax / Concentration (PK study): unit not given here
# Description: (§1) See the summary of the study design in Supplementary Table 31. Nine-week-old Wistar (Crl:WI (Han)) rats were obtained from Charles River Laboratories (Domaine des Oncins, Saint-Germain-Nuelles, France). […] Animals were examined daily for any altered clinical signs, body weights, and food consumption. Blood samples were taken at different timepoints after the test item administration, and toxicokinetic exposure assessed under the defined experimental conditions and analyzed using Phoenix (version 6.4 and 1.4) (Supplementary Table 32). Measurements included hematology and clinical chemistry measurements. Animals were euthanized and necropsied at the end of the dosing period. At necropsy, major organ systems and tissues were collected and weighed and then examined for gross lesions as well as for microscopic changes.
# [5] = 3-day MTD2 rat study; assay type: in vivo, Wistar Han rats; settings: 300, 600, 1000 mg/kg/day, three days
# Description: as §1
structure (smiles),measurement,setting,value
C[C@@H](CNC(=O)[C@H](O)C(C)(C)CO)NC(=O)c1cc(F)c(F)cc1F [MMV693183],sensitivity of isolates,[1],sensitive to MMV693183
same,IC50,"[1]; ART isolates, read-out: IC50s",1.36 nM and 1.4 nM and 1.6 nM and 1.2 nM and 1.3 nM
same,IC50,"[1]; ART-PPQ-AQ isolates, read-out: IC50s",0.84 nM and 1.26 nM and 1.36 nM and 1.54 nM and 1.3 nM and 1.03 nM and 1.1 nM and 1.39 nM
same,IC50,"[1]; Cambodian ACT-resistant isolates, read-out: IC50",0.21 to 1.84 nM
same,IC50,"[1]; MQ-ART isolates, read-out: IC50s",1.48 nM
same,IC50,"[1]; WT isolates, read-out: IC50s",1.57 nM and 1.28 nM and 1.01 nM and 1.31 nM and 1.26 nM and 1.38 nM and 1.32 nM and 1.61 nM
same,Compound Remaining (% of 0 min),[2]; 0 min,100%
same,Compound Remaining (% of 0 min),[2]; 5 min,96.2%
same,Compound Remaining (% of 0 min),[2]; 10 min,97.1%
same,Compound Remaining (% of 0 min),[2]; 20 min,97.8%
same,Compound Remaining (% of 0 min),[2]; 40 min,92.7%
same,Compound Remaining (% of 0 min),[2]; 60 min,89.2%
same,"EC50, concentration achieving 50percent of maximum effect",[3]; PD model estimate,11.5 ng/mL
same,MIC,[3]; PKPD model,3.2 ng/mL
same,MPC90,[3]; PKPD model,38.4 ng/mL
same,ED90,[3]; in vivo,4.4 mg/kg
same,time at which 3D7 parasites were cleared,[3]; single-dose groups,4 to 6 days
same,mortality,"[4]; 60, 200 mg/kg/day, 7 days",no mortality occurred
same,Liver weight,"[4]; PK 60 mg/kg/day, Females",6.5972 g
same,Liver weight,"[4]; PK 60 mg/kg/day, Males",11.4290 g
same,Liver weight,"[4]; PK 200 mg/kg/day, Females",8.4371 g
same,Liver weight,"[4]; PK 200 mg/kg/day, Males",13.5439 g
same,Concentration (PK study),"[4]; PK study, Females 60 mg/kg/day, Day 4, 8 hr",867 and 896 and 826
same,Concentration (PK study),"[4]; PK study, Females 60 mg/kg/day, Day 5, 8 hr",531 and 997 and 950
same,Concentration (PK study),"[4]; PK study, Females 60 mg/kg/day, Day 6, 8 hr",642 and 776
same,Concentration (PK study),"[4]; PK study, Females 60 mg/kg/day, Day 7, 8 hr",936 and 1060 and 1050
same,Concentration (PK study),"[4]; PK study, Females 200 mg/kg/day, Day 1, 0.5 hr",81400 and 80500 and 68400
same,Concentration (PK study),"[4]; PK study, Females 200 mg/kg/day, Day 1, 1 hr",65500 and 65700 and 66800
same,Concentration (PK study),"[4]; PK study, Females 200 mg/kg/day, Day 1, 4 hr",12200 and 17800 and 10500
same,Concentration (PK study),"[4]; PK study, Females 200 mg/kg/day, Day 3, 0.5 hr",70400 and 75700 and 61100
same,Concentration (PK study),"[4]; PK study, Females 200 mg/kg/day, Day 3, 2 hr",18000 and 10900 and 12000
same,Concentration (PK study),"[4]; PK study, Females 200 mg/kg/day, Day 3, 8 hr",2420 and 2030 and 1670
same,Concentration (PK study),"[4]; PK study, Females 200 mg/kg/day, Day 4, 0.5 hr",47900 and 69400 and 35700
same,Concentration (PK study),"[4]; PK study, Females 200 mg/kg/day, Day 4, 8 hr",1340 and 729 and 914
same,Concentration (PK study),"[4]; PK study, Females 200 mg/kg/day, Day 4, 24 hr",LLoQ
same,Concentration (PK study),"[4]; PK study, Females 200 mg/kg/day, Day 5, 2 hr",3640 and 1960 and 3540
same,Concentration (PK study),"[4]; PK study, Females 200 mg/kg/day, Day 5, 24 hr",LLoQ
same,Concentration (PK study),"[4]; PK study, Females 200 mg/kg/day, Day 6, 0.5 hr",17200 and 19900 and 13800
same,Concentration (PK study),"[4]; PK study, Females 200 mg/kg/day, Day 6, 1 hr",5360 and 3620 and 4830
same,Concentration (PK study),"[4]; PK study, Females 200 mg/kg/day, Day 6, 2 hr",2060 and 2560
same,Concentration (PK study),"[4]; PK study, Females 200 mg/kg/day, Day 6, 4 hr",1070 and 1300 and 1240
same,Concentration (PK study),"[4]; PK study, Females 200 mg/kg/day, Day 6, 24 hr",LLoQ
same,Concentration (PK study),"[4]; PK study, Females 200 mg/kg/day, Day 7, 0.5 hr",16600 and 15200 and 10900
same,Concentration (PK study),"[4]; PK study, Females 200 mg/kg/day, Day 7, 1 hr",7160 and 4910 and 4560
same,Concentration (PK study),"[4]; PK study, Females 200 mg/kg/day, Day 7, 8 hr",446 and 524 and 294
same,Concentration (PK study),"[4]; PK study, Females 200 mg/kg/day, Day 7, 24 hr",LLoQ
same,Concentration (PK study),"[4]; PK study, Males 60 mg/kg/day, Day 1, 1 hr",20300 and 24600 and 25700
same,Concentration (PK study),"[4]; PK study, Males 60 mg/kg/day, Day 1, 2 hr",8920
same,Concentration (PK study),"[4]; PK study, Males 60 mg/kg/day, Day 1, 8 hr",595 and 761 and 549
same,Concentration (PK study),"[4]; PK study, Males 60 mg/kg/day, Day 3, 0.5 hr",8790 and 10300 and 7140
same,Concentration (PK study),"[4]; PK study, Males 60 mg/kg/day, Day 3, 1 hr",5740 and 6580 and 9120
same,Concentration (PK study),"[4]; PK study, Males 60 mg/kg/day, Day 4, 1 hr",4970 and 6410 and 5310
same,Concentration (PK study),"[4]; PK study, Males 60 mg/kg/day, Day 4, 2 hr",2150
same,Concentration (PK study),"[4]; PK study, Males 60 mg/kg/day, Day 5, 0.5 hr",4090 and 5780 and 6430
same,Concentration (PK study),"[4]; PK study, Males 60 mg/kg/day, Day 5, 1 hr",2810 and 3810 and 4490
same,Concentration (PK study),"[4]; PK study, Males 60 mg/kg/day, Day 5, 2 hr",833
same,Concentration (PK study),"[4]; PK study, Males 60 mg/kg/day, Day 6, 0.5 hr",3190 and 3990 and 2700
same,Concentration (PK study),"[4]; PK study, Males 60 mg/kg/day, Day 6, 1 hr",2440 and 2560 and 2960
same,Concentration (PK study),"[4]; PK study, Males 60 mg/kg/day, Day 6, 2 hr",793
same,Concentration (PK study),"[4]; PK study, Males 60 mg/kg/day, Day 7, 0.5 hr",4630 and 4120 and 3030
same,Concentration (PK study),"[4]; PK study, Males 60 mg/kg/day, Day 7, 1 hr",2360 and 3070 and 4490
same,Concentration (PK study),"[4]; PK study, Males 60 mg/kg/day, Day 7, 2 hr",852
same,Liver weight,"[4]; PK study, females, 60 mg/kg/day, individual animals",7.845 g and 6.555 g and 7.19 g and 6.045 g and 7.197 g and 6.726 g and 6.103 g and 6.171 g and 6.163 g and 5.278 g and 7.062 g and 7.17 g and 6.744 g and 6.318 g and 6.169 g and 6.575 g and 6.983 g and 6.456 g
same,Liver weight,"[4]; PK study, females, 200 mg/kg/day, individual animals",8.221 g and 8.493 g and 7.964 g and 8.859 g and 9.347 g and 7.27 g and 8.193 g and 8.745 g and 8.636 g and 8.349 g and 8.711 g and 8.055 g and 7.728 g and 8.238 g and 8.802 g and 8.338 g and 9.482 g
same,Liver weight,"[4]; PK study, males, 60 mg/kg/day, individual animals",11.319 g and 10.601 g and 11.37 g and 12.154 g and 11.768 g and 12.437 g and 11.213 g and 11.313 g and 11.86 g and 10.827 g and 10.923 g and 10.921 g and 10.76 g and 12.104 g and 11.841 g and 10.238 g and 12.991 g and 11.082 g
same,Liver weight,"[4]; PK study, males, 200 mg/kg/day, individual animals",14.027 g and 16.129 g and 13.438 g and 12.573 g and 14.48 g and 14.447 g and 11.375 g and 14.317 g and 13.757 g and 13.38 g and 14.677 g and 13.312 g and 12.998 g and 12.7 g and 12.791 g and 13.174 g and 13.587 g and 12.628 g
same,decrease of exposure at later timepoints,[4]; day 3 to day 7 vs day 1,up to 11 fold
same,"Increased mitoses, hepatocellular: animals affected","[4]; in order: females 60, 200 mg/kg/day",1
same,"Hypertrophy, centrilobular: animals affected","[4]; in order: males 60, 200 (n=18), females 60 (n=18), 200 (n=17) mg/kg/day",18 and 14 and 17
same,Extramedullary hematopoiesis: animals affected,"[4]; in order: males 60, 200, females 60, 200 mg/kg/day",10 and 14 and 9 and 13
same,"Necrosis, hepatocellular: animals affected","[4]; in order: males 60, females 60, 200 mg/kg/day",1
same,toxicity,[5],no relevant toxicity was observed
